Experimental data reported in ChEMBL document CHEMBL3779812, “Synthesis and evaluation of the cytotoxic activity of novel ethyl 4-[4-(4-substitutedpiperidin-1-yl)]benzyl-phenylpyrrolo[1,2-a]quinoxaline-carboxylate derivatives in myeloid and lymphoid leukemia cell lines” (Eur J Med Chem, 2016).

What was measured:
Jurkat = experiment: Antiproliferative activity against human Jurkat cells measured after 3 days by MTS assay; type: functional, cell-based; conditions: 72 h
PBMC = experiment: Cytotoxicity against PHA induced human PBMC after 3 days by MTS assay; type: cell-based; conditions: 72 h
[1] = Antiproliferative activity against human U937 cells measured after 3 days by MTS assay; type: functional, cell-based; conditions: U-937, 72 h
[2] = Antiproliferative activity against human HL60 cells measured after 3 days by MTS assay; type: functional, cell-based; conditions: HL-60, 72 h
K562 [3] = experiment: Antiproliferative activity against human K562 cells measured after 3 days by MTS assay; type: functional, cell-based; conditions: K562, 72 h
[4] = Selectivity index, ratio of IC50 for human PBMC to IC50 for human U937 cells; parameters: species or system U-937
[5] = Antiproliferative activity against human U266 cells measured after 3 days by MTS assay; type: functional, cell-based; conditions: U-266, 72 h
[6] = Selectivity index, ratio of IC50 for human PBMC to IC50 for human U266 cells; parameters: species or system U-266
K562 [7] = experiment: Induction of apoptosis in human K562 cells at 10 uM measured on day 3 by APC-Annexin-V staining based flow cytometry; type: functional
[8] = Selectivity index, ratio of IC50 for human PBMC to IC50 for human K562 cells
[9] = Selectivity index, ratio of IC50 for human PBMC to IC50 for human Jurkat cells

## O=c1[nH]c2ccccc2n1C1CCN(Cc2ccc(-c3nc4cc5[nH]cnc5cc4nc3-c3ccccc3)cc2)CC1
Jurkat
  IC50: 3.5 µM
PBMC
  IC50: > 50 µM
[1]
  IC50: 8 µM
[2]
  IC50: 5.5 µM
K562 [3]
  IC50: 17 µM

## CCOC(=O)c1cc(-c2ccccc2)n2c1c(-c1ccc(CN3CCC(c4nc5ccc(F)cc5[nH]4)CC3)cc1)nc1ccccc12
[4]
  Ratio IC50: 12.5
Jurkat
  IC50: 6 µM
PBMC
  IC50: 50 µM
[1]
  IC50: 4 µM
[5]
  IC50: 4 µM
[2]
  IC50: 8 µM
[6]
  Ratio IC50: 12.5
K562 [3]
  IC50: 7 µM

## CCOC(=O)c1cc(-c2ccccc2)n2c1c(-c1ccc(CN3CCC(c4nnc(-c5ccccn5)[nH]4)CC3)cc1)nc1ccccc12
Jurkat
  IC50: 5 µM
PBMC
  IC50: 50 µM
[1]
  IC50: 11 µM
[5]
  IC50: 8 µM
[2]
  IC50: 24 µM
K562 [3]
  IC50: 12 µM

## CCOC(=O)c1cn2c(c(-c3ccc(CN4CCC(c5nc6ccc(F)cc6[nH]5)CC4)cc3)nc3ccccc32)c1-c1ccccc1
K562 [7]
  Activity: 92%
Jurkat
  IC50: 5 µM
PBMC
  IC50: > 50 µM
[5]
  IC50: 18 µM
[8]
  Ratio IC50: >16.7
[2]
  IC50: 10 µM
K562 [3]
  IC50: 3 µM

## CCOC(=O)c1c(-c2ccccc2)cn2c1c(-c1ccc(CN3CCC(c4nnc(-c5ccccn5)[nH]4)CC3)cc1)nc1ccccc12
Jurkat
  IC50: 5 µM
PBMC
  IC50: 16 µM
[1]
  IC50: 7 µM
[5]
  IC50: > 50 µM
[2]
  IC50: 12 µM
K562 [3]
  IC50: 14 µM

## CCOC(=O)c1cc2c(-c3ccc(CN4CCC(c5nc6ccc(F)cc6[nH]5)CC4)cc3)nc3ccccc3n2c1-c1ccccc1
Jurkat
  IC50: 3.5 µM
PBMC
  IC50: 13 µM
[1]
  IC50: 3 µM
[5]
  IC50: 3 µM
[2]
  IC50: 3 µM
K562 [3]
  IC50: 3 µM

## CCOC(=O)c1cc2c(-c3ccc(CN4CCC(c5nnc(-c6ccccn6)[nH]5)CC4)cc3)nc3ccccc3n2c1-c1ccccc1
Jurkat
  IC50: 3 µM
PBMC
  IC50: 12 µM
[1]
  IC50: 8 µM
[5]
  IC50: 3 µM
[2]
  IC50: 7 µM
K562 [3]
  IC50: 3.5 µM

## O=c1[nH]c2ccccc2n1C1CCN(Cc2ccc(-c3nc4ccccc4n4ccc(-c5ccccc5)c34)cc2)CC1
[2]
  IC50: 2 µM

## CCOC(=O)c1cc2c(-c3ccc(CN4CCC(n5c(=O)[nH]c6ccccc65)CC4)cc3)nc3ccccc3n2c1-c1ccccc1
Jurkat
  IC50: 6.5 µM
PBMC
  IC50: > 50 µM
[1]
  IC50: > 50 µM
[5]
  IC50: > 50 µM
[2]
  IC50: > 50 µM
K562 [3]
  IC50: 8.5 µM

## CCOC(=O)c1c(-c2ccccc2)cn2c1c(-c1ccc(CN3CCC(n4c(=O)[nH]c5ccccc54)CC3)cc1)nc1ccccc12
Jurkat
  IC50: 41 µM
PBMC
  IC50: > 50 µM
[1]
  IC50: > 50 µM
[5]
  IC50: > 50 µM
[8]
  Ratio IC50: >12.5
[2]
  IC50: > 50 µM
K562 [3]
  IC50: 4 µM

## CCOC(=O)c1c(-c2ccccc2)cn2c1c(-c1ccc(CN3CCC(c4nc5ccc(F)cc5[nH]4)CC3)cc1)nc1ccccc12
Jurkat
  IC50: 5 µM
PBMC
  IC50: 14 µM
[1]
  IC50: 21 µM
[5]
  IC50: 3.5 µM
[2]
  IC50: 19 µM
K562 [3]
  IC50: 3 µM

## O=c1[nH]c2ccccc2n1C1CCN(Cc2ccc(-c3nc4ccccc4n4cccc34)cc2)CC1
K562 [3]
  IC50: 4.5 µM

## CCOC(=O)c1cc(-c2ccccc2)n2c1c(-c1ccc(CN3CCC(n4c(=O)[nH]c5ccccc54)CC3)cc1)nc1ccccc12
Jurkat
  IC50: 4 µM
PBMC
  IC50: > 50 µM
[1]
  IC50: 9 µM
[5]
  IC50: 9 µM
[2]
  IC50: 6 µM
K562 [3]
  IC50: 8 µM
[9]
  Ratio IC50: >12.5

## O=c1[nH]c2ccccc2n1C1CCN(Cc2ccc(-c3nc4ccccc4n4cc5ccccc5c34)cc2)CC1
Jurkat
  IC50: 5 µM
[2]
  IC50: 5 µM
K562 [3]
  IC50: 5 µM

## CCOC(=O)c1cn2c(c(-c3ccc(CN4CCC(c5nnc(-c6ccccn6)[nH]5)CC4)cc3)nc3ccccc32)c1-c1ccccc1
Jurkat
  IC50: 2 µM
PBMC
  IC50: 8 µM
[1]
  IC50: 7 µM
[5]
  IC50: 5 µM
[2]
  IC50: 5 µM
K562 [3]
  IC50: 7 µM

## CCOC(=O)c1cn2c(c(-c3ccc(CN4CCC(n5c(=O)[nH]c6ccccc65)CC4)cc3)nc3ccccc32)c1-c1ccccc1
Jurkat
  IC50: 4 µM
PBMC
  IC50: 41.3 µM
[1]
  IC50: > 50 µM
[5]
  IC50: 10 µM
[2]
  IC50: 3.5 µM
K562 [3]
  IC50: 9 µM

## O=c1cc(N2CCOCC2)oc2c(-c3ccccc3)cccc12 [LY-294002]
Jurkat
  IC50: 22 µM
PBMC
  IC50: > 50 µM
[1]
  IC50: 14 µM
[5]
  IC50: 46 µM
[2]
  IC50: 14 µM
K562 [3]
  IC50: 38 µM
